“And” between values parts separate entries of the source, which are not always exact repeats. Equal values may be shown once. Inconclusive results and toxic doses are left out. Cut-off read from the data, not from the text of the source: active = T/C of 150% or more; inactive = T/C below 125%.
System: L1210 leukemia ip in BDF1 mice, survival T/C
Test: NCI In Vivo Anticancer Drug Screen. Data for tumor model L1210 Leukemia (intraperitoneal) in B6D2F1 (BDF1) mice
Details: endpoint: mean survival time, higher = longer survival
Summary of the method: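 Ratio derived from survival: compound-dosed mice over vehicle-dosed mice, all bearing a transplantable tumor.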

[1] = dose: 100.0 mg/kg/injection, schedule: Q01DX009 (ip), vehicle: Klucel (hydroxypropylcellulose) (HPC)
[2] = dose: 200.0 mg/kg/injection, schedule: Q01DX009 (ip), vehicle: Klucel (hydroxypropylcellulose) (HPC)
[3] = dose: 200.0 mg/kg/injection, schedule: Q01DX009 (ip), vehicle: saline with Tween-80
[4] = dose: 100.0 mg/kg/injection, schedule: Q01DX001 (ip), vehicle: carboxymethylcellulose (CMC)
[5] = dose: 200.0 mg/kg/injection, schedule: Q01DX001 (ip), vehicle: carboxymethylcellulose (CMC)
[6] = dose: 400.0 mg/kg/injection, schedule: Q01DX001 (ip), vehicle: carboxymethylcellulose (CMC)
[7] = dose: 100.0 mg/kg/injection, schedule: Q01DX009 (ip), vehicle: saline with Tween-80
[8] = dose: 100.0 mg/kg/injection, schedule: Q04DX003 (ip), vehicle: saline with Tween-80
[9] = dose: 200.0 mg/kg/injection, schedule: Q04DX003 (ip), vehicle: saline with Tween-80
[10] = dose: 400.0 mg/kg/injection, schedule: Q04DX003 (ip), vehicle: saline with Tween-80
[11] = dose: 100.0 mg/kg/injection, schedule: Q04DX003 (ip), vehicle: Klucel (hydroxypropylcellulose) (HPC)
[12] = dose: 200.0 mg/kg/injection, schedule: Q04DX003 (ip), vehicle: Klucel (hydroxypropylcellulose) (HPC)
[13] = dose: 400.0 mg/kg/injection, schedule: Q04DX003 (ip), vehicle: Klucel (hydroxypropylcellulose) (HPC)
[14] = dose: 100.0 mg/kg/injection, schedule: Q04DX002 (ip), vehicle: Klucel (hydroxypropylcellulose) (HPC)
[15] = dose: 200.0 mg/kg/injection, schedule: Q04DX002 (ip), vehicle: Klucel (hydroxypropylcellulose) (HPC)
[16] = dose: 100.0 mg/kg/injection, schedule: Q04DX003 (ip), vehicle: saline
[17] = dose: 200.0 mg/kg/injection, schedule: Q04DX003 (ip), vehicle: saline
[18] = dose: 400.0 mg/kg/injection, schedule: Q01DX009 (ip), vehicle: Klucel (hydroxypropylcellulose) (HPC)
[19] = dose: 50.0 mg/kg/injection, schedule: Q01DX009 (ip), vehicle: Klucel (hydroxypropylcellulose) (HPC)
[20] = dose: 25.0 mg/kg/injection, schedule: Q01DX009 (ip), vehicle: saline
[21] = dose: 50.0 mg/kg/injection, schedule: Q01DX009 (ip), vehicle: saline

Measured: T/C

CCN(CC)CCNC(=O)Nc1ccc(OC)cc1
inactive: [1] 96 % of control | [2] 103 % of control

CC(C)CC(NC(=O)c1ccccc1)C(=O)O (stereo unspecified)
inactive: [3] 88 % of control | dose: 264.0 mg/kg/injection, schedule: Q01DX009 (ip), vehicle: saline with Tween-80 97 % of control | dose: 600.0 mg/kg/injection, schedule: Q01DX009 (ip), vehicle: saline with Tween-80 92 % of control

Cc1ccc(NC(=O)Nc2c(C)cccc2C)cc1
inactive: [4] 95 % of control | [5] 95 % of control | [6] 103 % of control

CC(=O)Nc1cc(C(=O)O)cc(C(F)(F)F)c1
inactive: [7] 96 % of control | [8] 96 % of control | [3] 100 % of control | [9] 102 % of control | dose: 400.0 mg/kg/injection, schedule: Q01DX009 (ip), vehicle: saline with Tween-80 97 % of control | [10] 94 % of control

Nc1ccc(Cl)cc1
inactive: [4] 98 % of control | [5] 101 % of control | [6] 110 % of control

NNc1c(C(N)=O)c2c(N)ncnc2n1C1OC(CO)C(O)C1O (stereo unspecified)
inactive: dose: 100.0 mg/kg/injection, schedule: Q01DX005 (ip), vehicle: saline 96 % of control | dose: 200.0 mg/kg/injection, schedule: Q01DX005 (ip), vehicle: saline 100 % of control

N#Cc1cccc(-c2nc3ncnc(N)c3[nH]2)c1
inactive: [11] 94 % of control | [12] 96 % of control | [13] 92 % of control

COc1ccc(/C=C/c2nc3ccccc3nc2/C=C/c2ccc(OC)c(OC)c2)cc1OC
inactive: [1] 95 % of control | [11] 88 % of control | [2] 86 % of control | [12] 91 % of control | [13] 97 % of control

CN=C1N[N+]2=CCCCC2(C)S1 (stereo unspecified)
inactive: dose: 0.2 mg/kg/injection, schedule: Q03HX024 (ip), vehicle: saline 96 % of control | dose: 0.39 mg/kg/injection, schedule: Q03HX024 (ip), vehicle: saline 100 % of control | dose: 0.78 mg/kg/injection, schedule: Q03HX024 (ip), vehicle: saline 93 % of control | dose: 1.56 mg/kg/injection, schedule: Q03HX024 (ip), vehicle: saline 95 % of control | dose: 3.13 mg/kg/injection, schedule: Q03HX024 (ip), vehicle: saline 101 % of control

COc1ccc(-n2cccc2/C=N/O)cc1
inactive: [14] 96 % of control | [15] 100 % of control | dose: 400.0 mg/kg/injection, schedule: Q04DX002 (ip), vehicle: Klucel (hydroxypropylcellulose) (HPC) 86 % of control

CSc1nc(C)c(Br)c(Sc2nc(N)nc3nc[nH]c23)n1
inactive: dose: 100.0 mg/kg/injection, schedule: Q01DX Z (ip), vehicle: methylcellulose (MC) 87 % of control

CC(C)N=Cc1cc(I)cc(I)c1O.CC(C)N=Cc1cc(I)cc(I)c1O.[Co]
inactive: [16] 88 % of control | [17] 94 % of control | dose: 400.0 mg/kg/injection, schedule: Q04DX003 (ip), vehicle: saline 102 % of control

C=C1CC[N+]2(CC(=O)c3ccc(Br)cc3)CCCC12 (stereo unspecified)
inactive: dose: 12.5 mg/kg/injection, schedule: Q01DX001 (ip), vehicle: saline 92 % of control | dose: 25.0 mg/kg/injection, schedule: Q01DX001 (ip), vehicle: saline 92 % of control | dose: 50.0 mg/kg/injection, schedule: Q01DX001 (ip), vehicle: saline 101 % of control

CCCCC(C(C)=O)C(C)C (stereo unspecified)
inactive: [1] 94 % of control | [11] 100 % of control | [2] 91 % of control | [12] 96 % of control | [18] 95 % of control | [13] 92 % of control

CSc1ccc(OC(=O)Nc2ccc(C)cc2[N+](=O)[O-])cc1
inactive: [19] 90 % of control | [1] 90 % of control | [11] 97 % of control | [2] 100 % of control | [12] 99 % of control | [13] 97 % of control

CCC12C=CCN3CCC4(c5cc(C(c6ccc(OC)cc6)c6cc7ccccc7n6S(=O)(=O)c6ccccc6)c(OC)cc5N(C)C4C(O)(C(=O)OC)C1OC(C)=O)C32 (stereo unspecified)
inactive: dose: 50.0 mg/kg/injection, schedule: Q04DX002 (ip), vehicle: Klucel (hydroxypropylcellulose) (HPC) 98 % of control | [14] 98 % of control | [15] 102 % of control

NC(=S)N/N=C(/C(=O)O)c1ccc([N+](=O)[O-])cc1
inactive: dose: 100.0 mg/kg/injection, schedule: Q01DX001 (ip), vehicle: Klucel (hydroxypropylcellulose) (HPC) 93 % of control | [11] 104 % of control | dose: 200.0 mg/kg/injection, schedule: Q01DX001 (ip), vehicle: Klucel (hydroxypropylcellulose) (HPC) 115 % of control | [12] 98 % of control | dose: 400.0 mg/kg/injection, schedule: Q01DX001 (ip), vehicle: Klucel (hydroxypropylcellulose) (HPC) 96 % of control | [13] 93 % of control

COc1ccc(-c2nc(SCc3ccc(Cl)cc3)[nH]c(=O)c2CCO)cc1
inactive: [19] 95 % of control | [1] 101 % of control | [16] 111 % of control | [2] 96 % of control | [17] 95 % of control

Cc1cccc(Nc2c(N)nc(N)nc2N)c1
inactive: [20] 105 % of control | [21] 120 % of control | [16] 104 % of control

BrCc1cccc2cccnc12
inactive: dose: 1.56 mg/kg/injection, schedule: Q01DX009 (ip), vehicle: saline with Tween-80 93 % of control | dose: 3.13 mg/kg/injection, schedule: Q01DX009 (ip), vehicle: saline with Tween-80 96 % of control | dose: 6.25 mg/kg/injection, schedule: Q01DX009 (ip), vehicle: saline with Tween-80 91 % of control | dose: 12.5 mg/kg/injection, schedule: Q01DX009 (ip), vehicle: saline with Tween-80 91 % of control

O=C(O)/C=C/C=C/c1ccccc1
inactive: [8] 97 % of control | [9] 92 % of control | [10] 106 % of control

O=S(=O)(C1CCCCC1)N1N=NC2CCCCC21 (stereo unspecified)
inactive: dose: 50.0 mg/kg/injection, schedule: Q01DX009 (ip), vehicle: saline with Tween-80 93 % of control | [7] 90 % of control

CCCNc1nc(N)[nH]c(=O)c1NC=O
inactive: dose: 55.0 mg/kg/injection, schedule: Q01DX Z (ip), vehicle: methylcellulose (MC) 105 % of control | dose: 83.0 mg/kg/injection, schedule: Q01DX Z (ip), vehicle: methylcellulose (MC) 109 % of control | dose: 125.0 mg/kg/injection, schedule: Q01DX Z (ip), vehicle: methylcellulose (MC) 109 % of control | dose: 180.0 mg/kg/injection, schedule: Q01DX Z (ip), vehicle: methylcellulose (MC) 97 % of control

CC(C)=CC(=O)NC(=O)NS(=O)(=O)c1ccc(C)cc1
inactive: [19] 91 % of control | [1] 95 % of control | [11] 115 % of control | [12] 104 % of control

COC(=O)c1cc(Cl)ccc1O
inactive: dose: 37.5 mg/kg/injection, schedule: Q04DX003 (ip), vehicle: Klucel (hydroxypropylcellulose) (HPC) 100 % of control | dose: 75.0 mg/kg/injection, schedule: Q04DX003 (ip), vehicle: Klucel (hydroxypropylcellulose) (HPC) 100 % of control | dose: 150.0 mg/kg/injection, schedule: Q04DX003 (ip), vehicle: Klucel (hydroxypropylcellulose) (HPC) 92 % of control

Cc1ccc2c(c1)P(O)(=S)c1cc(Cl)ccc1O2 (stereo unspecified)
inactive: [20] 102 % of control | [21] 108 % of control | dose: 100.0 mg/kg/injection, schedule: Q01DX009 (ip), vehicle: saline 108 % of control | dose: 200.0 mg/kg/injection, schedule: Q01DX009 (ip), vehicle: saline 108 % of control

S=C(S)NCCCNC(=S)S
inactive: dose: 100.0 mg/kg/injection, schedule: Q01DX001 (ip), vehicle: saline 98 % of control and 103 % of control | dose: 200.0 mg/kg/injection, schedule: Q01DX001 (ip), vehicle: saline 95 % of control and 100 % of control | dose: 400.0 mg/kg/injection, schedule: Q01DX001 (ip), vehicle: saline 95 % of control

CC(C)(C)c1ccc(OC(=O)Nc2cc(C(F)(F)F)ccc2Cl)c(Br)c1
inactive: [1] 90 % of control | [2] 97 % of control | [18] 97 % of control

Source: PubChem BioAssay AID248 (DTP/NCI, 2004)
